Source: patent publication US5484771A, “Antiherpes peptide derivatives having a 1,4-dioxo-C, N-terminus” (priority 1994, dated 1996)
Several values for one entry are separate records, joined by “and”; a condition that tells them apart may be missing. Equal values may be shown once. Numbered stars: 1 amine (or outer) side, 2 acyl side, 3 side chain; on linkers, the order of the positions; unused ones are H or OH. Peptide text beside a SMILES is read from it. * marks the point of attachment. Suc = O=C(CCC(=O)[*:2])[*:1]; Pyrrolidide = C1CCN(*)C1; NHiPr = CC(C)N*

Target: T1, HSV-1 ribonucleotide reductase (Human herpesvirus 1, UniProt P08543)
T1 construct: HSV-1 ribonucleotide reductase (partially purified) was obtained from quiescent BHK-21/C13 cells infected with strain F HSV-1 virus; made in house; host or cells: quiescent BHK-21/C13 cells infected with HSV-1 strain F (10 pfu/cell); partially purified
Test: biochemical
Settings: IC50, concentration producing 50% of the maximal inhibition of enzyme activity; partially purified enzyme; mean of four assays
Text: HSV-1 ribonucleotide reductase (partially purified) was obtained from quiescent BHK-21/C13 cells infected with strain F HSV-1 virus at 10 plaque forming units/cell as described by E. A. Cohen et at., J. Gem Virol., 66, 733 (1985).
By following the procedure described by P. Gaudreau et at., J. Biol, Chem., 262, 12413 (1987), the assay results listed in the following table were obtained. The assay result for each exemplified compound of formula 1 is expressed as the concentration of the compound producing 50% of the maximal inhibition (IC50) of enzyme activity. The number of units of the enzyme preparation used in each assay was constant, based on the specific activity of the enzyme preparation. The results are relative to the activity obtained in control experiments without the test compound and represent the mean of four assays that varied less than 10% with each other.

T1 sequence (P08543 whole entry): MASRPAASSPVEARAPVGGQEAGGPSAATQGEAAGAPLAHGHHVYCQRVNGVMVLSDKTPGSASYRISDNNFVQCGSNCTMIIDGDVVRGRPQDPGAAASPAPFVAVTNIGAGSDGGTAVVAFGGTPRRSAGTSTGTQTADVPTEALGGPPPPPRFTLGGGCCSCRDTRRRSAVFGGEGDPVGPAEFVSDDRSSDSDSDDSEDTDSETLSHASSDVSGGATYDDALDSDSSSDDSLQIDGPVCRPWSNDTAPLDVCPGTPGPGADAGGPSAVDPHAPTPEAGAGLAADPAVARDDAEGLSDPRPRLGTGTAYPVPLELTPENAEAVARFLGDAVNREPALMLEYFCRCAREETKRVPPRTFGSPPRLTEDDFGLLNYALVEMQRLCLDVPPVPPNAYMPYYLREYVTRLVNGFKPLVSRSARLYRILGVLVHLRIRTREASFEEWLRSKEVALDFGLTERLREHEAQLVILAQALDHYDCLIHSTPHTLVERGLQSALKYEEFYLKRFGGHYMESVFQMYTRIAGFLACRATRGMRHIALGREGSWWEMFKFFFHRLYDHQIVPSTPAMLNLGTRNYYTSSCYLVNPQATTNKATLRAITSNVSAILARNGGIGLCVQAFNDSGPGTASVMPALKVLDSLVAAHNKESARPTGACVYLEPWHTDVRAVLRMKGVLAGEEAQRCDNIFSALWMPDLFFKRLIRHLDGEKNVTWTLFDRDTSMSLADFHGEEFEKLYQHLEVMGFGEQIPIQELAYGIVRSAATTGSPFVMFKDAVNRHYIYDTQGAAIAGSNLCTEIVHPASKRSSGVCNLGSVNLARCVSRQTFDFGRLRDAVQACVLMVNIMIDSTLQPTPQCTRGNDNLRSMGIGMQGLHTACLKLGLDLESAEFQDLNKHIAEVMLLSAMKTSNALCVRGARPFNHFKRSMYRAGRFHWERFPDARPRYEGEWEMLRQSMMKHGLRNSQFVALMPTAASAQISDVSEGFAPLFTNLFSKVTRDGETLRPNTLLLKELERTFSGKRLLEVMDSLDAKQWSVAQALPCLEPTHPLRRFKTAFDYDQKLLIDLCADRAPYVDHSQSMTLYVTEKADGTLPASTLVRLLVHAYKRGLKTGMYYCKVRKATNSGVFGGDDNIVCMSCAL

Compound	IC50
CC(C)C[C@H](NC(=O)[C@H](CC(=O)O)NC(=O)[C@H](CC(=O)N1CCCC1)NC(=O)CCC(=O)NC1CCCCC1)C(=O)O [Cyclohexylamino-COCH2 CH2 CO-Asp(pyrrolidino)-Asp-Leu-OH]	22 µM
CCC(CC)NC(=O)c1ccccc1C(=O)N[C@@H](CC(=O)N1CCCC1)C(=O)N[C@@H](CC(=O)O)C(=O)N[C@@H](CC(C)C)C(=O)O [Et2 CHNHCO-(1,2-phenylene)-CO-Asp(pyrrolidino)-Asp-Leu-OH]	6.5 µM
CCC(CC)NC(=O)C1CCCCC1C(=O)N[C@@H](CC(=O)N1CCCC1)C(=O)N[C@@H](CC(=O)O)C(=O)N[C@@H](CC(C)C)C(=O)O (stereo partly drawn) [Et2 CHNHCO-(cis-1,2-cyclohexanediyl)-CO-Asp(pyrrolidino)-Asp-Leu-OH]	3.7 µM and 2.21 µM
CCC(CC)NC(=O)/C=C\C(=O)N[C@@H](CC(=O)N1CCCC1)C(=O)N[C@@H](CC(=O)O)C(=O)N[C@@H](CC(C)C)C(=O)O [Et2 CHNHCO-(cis-CH=CH)-CO-Asp(pyrrolidino)-Asp-Leu-OH]	21 µM
CCC(CC)NC(=O)CCC(=O)N(C)[C@@H](CC(=O)N1CCCC1)C(=O)N[C@@H](CC(=O)O)C(=O)N[C@@H](CC(C)C)C(=O)O [Et2 CHNHCOCH2 CH2 CO-(N-Me)-Asp(pyrrolidino)-Asp-Leu-OH]	2 µM
CCC(CC)NC(=O)CCC(=O)N[C@@H](CC(=O)N1CCC(C)CC(C)(C)C1)C(=O)N[C@@H](CC(=O)O)C(=O)N[C@@H](CC(C)C)C(=O)O (stereo partly drawn) [Et2 CHNHCOCH2 CH2 CO-Asp(3,3,5-trimethylhexahydroazepino)-Asp-Leu-OH]	12 µM
CCC(CC)NC(=O)CCC(=O)N[C@@H](CC(=O)OCCCCCl)C(=O)N[C@@H](CC(=O)O)C(=O)N[C@@H](CC(C)C)C(=O)O [Et2 CHNHCOCH2 CH2 CO-Asp(4-chloro-butyloxy)-Asp-Leu-OH]	20 µM
CCCCCCCCN(C)C(=O)C[C@H](NC(=O)CCC(=O)NC(CC)CC)C(=O)N[C@H](C(=O)N[C@@H](CC(C)C)C(=O)O)C1(C(=O)O)CCCC1 [Et2 CHNHCOCH2 CH2 CO-Asp(N-Me-N-octyl)-Asp(cyPn)-Leu-OH]	0.73 µM
CCC(CC)NC(=O)CCC(=O)N[C@@H](CC(=O)N1CCC1)C(=O)N[C@@H](CC(=O)O)C(=O)N[C@@H](CC(C)C)C(=O)O [Et2 CHNHCOCH2 CH2 CO-Asp(azetidino)-Asp-Leu-OH]	9.1 µM
CCC(CC)NC(=O)CCC(=O)N[C@@H](CC(=O)OC1CCCCC1)C(=O)N[C@@H](CC(=O)O)C(=O)N[C@@H](CC(C)C)C(=O)O [Et2 CHNHCOCH2 CH2 CO-Asp(cyclohexyloxy)-Asp-Leu-OH]	75 µM
CCC(CC)NC(=O)CCC(=O)N[C@@H](CC(=O)N1CCCC1)C(=O)N[C@H](C(=O)NCCC(C)(C)C)C(C)(C)C(=O)O [Et2 CHNHCOCH2 CH2 CO-Asp(pyrrolidino)-Asp(diMe)-NH[CH2 CH2 C(CH3)3 ]]	75 µM
CCCCCC[C@H](C)OC(=O)C[C@H](NC(=O)CCC(=O)NC(CC)CC)C(=O)N[C@H](C(=O)N[C@@H](CC(C)C)C(=O)O)C1(C(=O)O)CCC1 [Et2 CHNHCOCH2 CH2 CO-Asp[1(S)-methylheptyloxy]-Asp(cyBu)-Leu-OH]	4.4 µM
CCC(CC)NC(=O)CCC(=O)N[C@@H](CC(=O)N(C)CCO)C(=O)N[C@@H](CC(=O)O)C(=O)N[C@@H](CC(C)C)C(=O)O [Et2 CHNHCOCH2 CH2 CO-Asp[N(CH3)CH2-CH2 OH]-Asp-Leu-OH]	11 µM
CCC(CC)NC(=O)CCC(=O)N[C@@H](CC(=O)C1CCCC1)C(=O)N[C@@H](CC(=O)O)C(=O)N[C@@H](CC(C)C)C(=O)O [Et2 CHNHCOCH2 CH2 CO-NHCH-(2-cyclopentyl-2-oxoethyl)-CO-Asp-Leu-OH]	3.4 µM
CCCCCCCC(=O)C[C@H](NC(=O)CCC(=O)NC(CC)CC)C(=O)N[C@@H](CC(=O)O)C(=O)N[C@@H](CC(C)C)C(=O)O [Et2 CHNHCOCH2 CH2 CO-NHCH-(2-oxononyl)-CO-Asp-Leu-OH]	9 µM
CCC(CC)NC(=O)CCC(=O)N[C@@H](CC(=O)N1CCCC1)C(=O)N[C@H](C(=O)N[C@H](CO)CC(C)C)C1(C(=O)O)CCC1 [Et2 CHNHCOCH2 CH2,CO-Asp(pyrrolidino)-Asp(cyBu)-(L-leucinol)]	5 µM
CCC(CC)NC(=O)CCC(=O)N[C@@H](CC(=O)N(C)CCOC(C)=O)C(=O)N[C@@H](CC(=O)O)C(=O)N[C@@H](CC(C)C)C(=O)O [Et2 CHNHCOCH2 CH 2 CO-Asp[N(CH3)CH2-CH2 OCOCH3 ]-Asp-Leu-OH]	9.9 µM
CC(C)CNC(=O)CCC(=O)N[C@@H](CC(=O)N1CCCC1)C(=O)N[C@@H](CC(=O)O)C(=O)N[C@@H](CC(C)C)C(=O)O [Me2 CHCH2 NHCOCH2 CH2 CO-Asp(pyrrolidino)-Asp-Leu-OH]	75 µM
CC(C)C[C@H](NC(=O)[C@H](CC(=O)O)NC(=O)[C@H](CC(=O)N1CCCC1)NC(=O)CCC(=O)NC(C)C)C(=O)O [Me2 CHNHCOCH2 CH2 CO-Asp(pyrrolidino)-Asp-Leu-OH] ({NHiPr-Suc}-Asp(Pyrrolidide)-Asp-Leu-OH)	18 µM
CCC(CC)NC(=O)CCC(=O)N[C@@H](CC(=O)N1CCCC1)C(=O)N[C@@H](CC(=O)O)C(=O)N[C@@H](CC(C)C)C(=O)O [Title Compound of Example 10, Et2 CHNHCOCH2 CH2 CO--Asp(pyrrolidiono)--Asp-Leu--OH]	2.9 µM
CCC(CC)NC(=O)C[C@H](C(=O)N[C@@H](CC(=O)N1CCCC1)C(=O)N[C@H](C(=O)N[C@@H](CC(C)(C)C)C(=O)O)C1(C(=O)O)CCCC1)C(C)(C)C [Title Compound of Example 11, Et2 CHNH--COCH2 CH[(S)-C(CH3)3]CO--Asp(pyrrolidino)--Asp(cyPn)-γMeLeu--OH]	0.17 µM
